Patent US7727956B2, “Deoxonadepsipeptides” (Aicuris GmbH & Co. KG, priority 2004, dated 2010)
In brackets after ≈: the same amount, converted by molar mass. Where two headings read alike, the source gives them in different places. Starred links: 1 amine or outer side, 2 acyl side, 3 side chain; linkers in the order of their positions; H or OH if unused. Positions of bridges follow the written chain, without caps; N, C: chain ends. Non-standard residues stand in square brackets, D forms with d. Residues, ends and D or L forms follow the SMILES beside them. X3 = C[Si](C)(C)C[C@H](N)CN([C@@H](C[Si](C)(C)C)C(=O)[*:2])[*:1]; X4 = CC(C)(C)C[C@@H](C(=O)[*:2])N(C[C@@H](N)C[Si](C)(C)C)[*:1]; X1 = CC(C)C[C@@H](C(=O)[*:2])N(C[C@@H](N)C[Si](C)(C)C)[*:1]; Phe(3R-OH) = O=C([C@@H](N[*:1])[C@H](O[*:3])c1ccccc1)[*:2]; X2 = CC(C)(C)C[C@H](N)CN([C@@H](CC(C)(C)C)C(=O)[*:2])[*:1]; Asn(3S-OH) = NC(=O)[C@@H](O)[C@H](N)C(=O)O; Leu(3R-OH) = CC(C)[C@@H](O)[C@H](N)C(=O)O; aThr = C[C@H](O)[C@H](N)C(=O)O

Key:
[1] = tested on: Staphylococcus aureus 133; assay type: cell-based
Description: (§1) Determination of the Minimum Inhibitory Concentration (MIC):
(§2) The MIC is determined in the liquid dilution test in accordance with the NCCLS guidelines. Overnight cultures of Staphylococcus aureus 133, Entercococcus faecalis 27159, E. faecium 4147 and Streptococcus pneumoniae G9a are incubated with the described test substances in a 1:2 dilution series. The MIC determination is carried out with a cell count of 105 microorganisms per ml in Isosensitest medium (Difco, Irvine/USA), with the exception of S. pneumoniae, which is tested in BHI broth (Difco, Irvine/USA) with 10% bovine serum at a cell count of 106 microorganisms per ml. The cultures are incubated at 37° C. for 18-24 hours, S. pneumoniae in the presence of 10% CO2.
(§3) The lowest substance concentration in each case at which no visible bacterial growth occurs any more is defined as the MIC. The MIC values are reported in μg/ml.

[2] = tested on: Streptococcus pneumoniae G9a; assay type: cell-based
Description: as §1, §2, §3

E. faecalis ICB 27159 = assay type: cell-based, Entercococcus faecalis
Description: as §1, §2, §3

[3] = Isosensitest medium, 37° C., 18-24 hours
[4] = BHI broth with 10% bovine serum, 37° C., 18-24 hours, 10% CO2

Row | MIC S. aureus 133 [1]; 133 [µg/mL] | MIC S. pneumoniae ([2]; G9a) [µg/mL] | MIC E. faecalis ICB 27159 (E. faecalis ICB 27159; ICB 27159) [µg/mL] | Structure (SMILES) | MIC S. aureus 133 [1, 3] [µg/mL] | MIC S. pneumoniae [2, 4] [µg/mL] | MIC E. faecalis ICB 27159 (E. faecalis ICB 27159; [3]) [µg/mL]
1 |  |  |  | CC[C@H](C)[C@@H]1NC(=O)[C@@H](CCCNC(=N)N)NC(=O)[C@H](CC(C)C)NC(=O)[C@H]([C@H](O)C(C)C)NC(=O)[C@@H](NC(=O)[C@H](CC(C)C)NC[C@@H](N)C[Si](C)(C)C)[C@@H](c2ccccc2)OC(=O)[C@H](CO)NC(=O)[C@H]([C@H](O)C(N)=O)NC(=O)CNC(=O)[C@H]([C@H](C)O)NC1=O [Example 5, N-[(2R)-2-Amino-3-trimethylsilyl-prop-1-yl]de(1-D-leucine) lysobactin trishydro-trifluoroacetate] (H-[X1][Phe(3R-OH)][Leu(3R-OH)]L[dR]I[aThr]G[Asn(3S-OH)]S; ester 2-C) | 0.5 (≈ 0.387 µM) | 0.063 (≈ 0.0487 µM) | 1 (≈ 0.774 µM)
2 | 0.5 (≈ 0.387 µM) | 0.063 (≈ 0.0488 µM) | 1 (≈ 0.775 µM) | CC[C@H](C)[C@@H]1NC(=O)[C@@H](CCCNC(=N)N)NC(=O)[C@H](CC(C)C)NC(=O)[C@H]([C@H](O)C(C)C)NC(=O)[C@@H](NC(=O)[C@H](CC(C)(C)C)NC[C@@H](N)CC(C)(C)C)[C@@H](c2ccccc2)OC(=O)[C@H](CO)NC(=O)[C@H]([C@H](O)C(N)=O)NC(=O)CNC(=O)[C@H]([C@H](C)O)NC1=O [Example 8, N-{N-[(2S)-2-Amino-4,4-dimethylpent-1-yl]-β-tBu-Ala-de(1-D-leucine-2-leucine)-lysobactintris-hydrofluoro-acetate] (H-[X2][Phe(3R-OH)][Leu(3R-OH)]L[dR]I[aThr]G[Asn(3S-OH)]S; ester 2-C) |  |  | 
3 |  |  |  | CC[C@H](C)[C@@H]1NC(=O)[C@@H](CCCNC(=N)N)NC(=O)[C@H](CC(C)C)NC(=O)[C@H]([C@H](O)C(C)C)NC(=O)[C@@H](NC(=O)[C@H](C[Si](C)(C)C)NC[C@@H](N)C[Si](C)(C)C)[C@@H](c2ccccc2)OC(=O)[C@H](CO)NC(=O)[C@H]([C@H](O)C(N)=O)NC(=O)CNC(=O)[C@H]([C@H](C)O)NC1=O [Example 14, N-{N-[(2R)-2-Amino-3-trimethylsilyl-prop-1-yl]-(β-trimethylsilyl)-Ala]}de(1-D-leucine-2-leucine)-lysobactin tris-hydrotrifluoro-acetate] (H-[X3][Phe(3R-OH)][Leu(3R-OH)]L[dR]I[aThr]G[Asn(3S-OH)]S; ester 2-C) | 0.25 (≈ 0.189 µM) | 0.0156 (≈ 0.0118 µM) | 0.125 (≈ 0.0945 µM)
4 |  |  |  | CC[C@H](C)[C@@H]1NC(=O)[C@@H](CCCNC(=N)N)NC(=O)[C@H](CC(C)C)NC(=O)[C@H]([C@H](O)C(C)C)NC(=O)[C@@H](NC(=O)[C@H](CC(C)(C)C)NC[C@@H](N)C[Si](C)(C)C)[C@@H](c2ccccc2)OC(=O)[C@H](CO)NC(=O)[C@H]([C@H](O)C(N)=O)NC(=O)CNC(=O)[C@H]([C@H](C)O)NC1=O [Example 15, N-{N-[(2R)-2-Amino-3-tri-methylsilylprop-1-yl]-(β-tBu-Ala)}-de(1-D-leucine-2-leucine) lysobactin trishydro-trifluoroacetate] (H-[X4][Phe(3R-OH)][Leu(3R-OH)]L[dR]I[aThr]G[Asn(3S-OH)]S; ester 2-C) | 0.5 (≈ 0.383 µM) | 0.063 (≈ 0.0482 µM) | 1 (≈ 0.765 µM)
